Test results taken from ChEMBL document CHEMBL1125030, “Boc-Trp-Orn(Z)-Asp-NH2 and derivatives: a new family of CCK antagonists” (J Med Chem, 1990).
Calls of active or inactive are those of the source. The calls are words filed in the database; no cut-off is given here. Where a SMILES comes first, the peptide text is derived from it. [ ]: non-standard residue; d: D form. The star is where a group is joined. Phe(4-SO3H) = N[C@@H](Cc1ccc(S(=O)(=O)O)cc1)C(=O)O; sY = N[C@@H](Cc1ccc(OS(=O)(=O)O)cc1)C(=O)O; Nle = CCCC[C@H](N)C(=O)O; Orn = NCCC[C@H](N)C(=O)O; Cbz = O=C(OCc1ccccc1)*; Boc = CC(C)(C)OC(=O)*

What was measured:
Cavia porcellus [1] = species: Cavia porcellus; assay: Antagonist activity expressed as binding constant, evaluated from the potency to stimulate Amylase release from guinea pig pancreatic acini;Not significant
[2] = Antagonist activity expressed as pA2, evaluated from the potency to stimulate amylase release from guinea pig pancreatic acini; format: functional, Cavia porcellus
[3] = biological target: T1, Cholecystokinin receptor type A (Cavia porcellus, UniProt Q63931); assay: Apparent affinity to inhibit binding of [3H]pCCK-8 to Cholecystokinin type A receptor of guinea pig pancreatic membranes
T1 sequence (Q63931 whole entry): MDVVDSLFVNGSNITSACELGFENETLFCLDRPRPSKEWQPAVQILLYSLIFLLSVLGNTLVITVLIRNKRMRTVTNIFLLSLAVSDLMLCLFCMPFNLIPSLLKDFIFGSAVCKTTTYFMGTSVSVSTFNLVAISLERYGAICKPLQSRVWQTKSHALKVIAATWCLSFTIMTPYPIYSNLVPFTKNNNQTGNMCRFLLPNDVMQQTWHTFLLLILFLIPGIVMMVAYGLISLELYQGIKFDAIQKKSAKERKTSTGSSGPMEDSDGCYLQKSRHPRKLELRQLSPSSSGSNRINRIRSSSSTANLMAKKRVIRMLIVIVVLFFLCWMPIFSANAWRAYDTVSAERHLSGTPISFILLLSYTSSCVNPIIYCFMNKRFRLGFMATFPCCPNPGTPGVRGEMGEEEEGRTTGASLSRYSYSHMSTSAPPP

[4] = Agonist activity expressed as effective concentration that causes 50% stimulation of amylase release from guinea pig pancreatic acini.; ND means no significant activity at 10e-4 M
[5] = (§1) Antagonist activity expressed as binding constant, evaluated from the potency to stimulate Amylase release from guinea pig pancreatic acini; parameters: species or system Cavia porcellus
Cavia porcellus [6] = species: Cavia porcellus; assay: as §1
[7] = Agonist activity expressed as effective concentration that causes 50% stimulation of amylase release from guinea pig pancreatic acini;Not significant; format: functional, Cavia porcellus
[8] = Antagonist activity expressed as binding constant, evaluated from the potency to stimulate Amylase release from guinea pig pancreatic acini;Not significant at 10e-4 M; settings: Cavia porcellus
[9] = Agonist activity expressed as effective concentration that causes 50% stimulation of amylase release from guinea pig pancreatic acini.; ND means no significant activity at 10e-4 M; format: functional, Cavia porcellus
[10] = Antagonist activity expressed as pA2, evaluated from the potency to stimulate Amylase release from guinea pig pancreatic acini; format: functional, Cavia porcellus
[11] = Agonist activity expressed as effective concentration that causes 50% stimulation of Amylase release from guinea pig pancreatic acini.; ND means no significant activity at 10e-4 M; format: functional, Cavia porcellus
[12] = Agonist activity expressed as effective concentration that causes 50% stimulation of amylase release from guinea pig pancreatic acini; format: functional, Cavia porcellus

Compound | pA2 [2] | Ki [3] | EC50 [4] | Kb (Cavia porcellus [6]) | further results
CC(C)(C)OC(=O)NCCC[C@H](NC(=O)[C@H](Cc1c[nH]c2ccccc12)NC(=O)OC(C)(C)C)C(=O)N[C@@H](CC(=O)O)C(N)=O (Boc-Trp-[Orn](Boc)-Asp-NH2) | 4.62 | 29 µM | Not Active | – | Kb (Cavia porcellus [1]): 230 nM
CC(C)(C)OC(=O)N[C@@H](Cc1c[nH]c2ccccc12)C(=O)N[C@@H](CCCNC(=O)OCc1ccccc1)C(=O)N[C@@H](CC(=O)O)C(N)=O (Boc-Trp-[Orn](Cbz)-Asp-NH2) | 6.63 | 0.2 µM | Not Active | – | Kb (Cavia porcellus [1]): 230 nM
CC(C)(C)OC(=O)N[C@@H](Cc1c[nH]c2ccccc12)C(=O)N[C@@H](CCCN)C(=O)N[C@@H](CC(=O)O)C(N)=O (Boc-Trp-[Orn]-Asp-NH2) | – | 1000 µM | – | – | –
CC(C)(C)OC(=O)NCCC[C@H](NC(=O)[C@H](Cc1c[nH]c2ccccc12)NC(=O)OC(C)(C)C)C(=O)N[C@@H](CC(=O)O)C(=O)N[C@@H](Cc1ccccc1)C(N)=O (Boc-W[Orn](Boc)DF-NH2) | 4.58 | 5.2 µM | – | – | EC50 [5]: 13.6 µM; Kb (Cavia porcellus [1]): inactive
CC(C)(C)OC(=O)N[C@@H](Cc1c[nH]c2ccccc12)C(=O)N[C@@H](CCCNC(=O)OCc1ccccc1)C(=O)N[C@@H](CC(=O)O)C(=O)N[C@@H](Cc1ccccc1)C(N)=O (Boc-W[Orn](Cbz)DF-NH2) | 6.25 | 0.34 µM | Not Active | 570 nM | –
CC(C)(C)OC(=O)N[C@@H](Cc1c[nH]c2ccccc12)C(=O)N[C@@H](CCCN)C(=O)N[C@@H](CC(=O)O)C(=O)N[C@@H](Cc1ccccc1)C(N)=O (Boc-W[Orn]DF-NH2) | – | 14 µM | – | – | EC50 [7]: 13.8 µM; Kb [8]: inactive
CCCC[C@H](NC(=O)[C@H](Cc1ccc(S(=O)(=O)O)cc1)NC(=O)OC(C)(C)C)C(=O)NCC(=O)N[C@@H](Cc1c[nH]c2ccccc12)C(=O)N[C@@H](CCCNC(=O)OC(C)(C)C)C(=O)N[C@@H](CC(=O)O)C(=O)N[C@@H](Cc1ccccc1)C(N)=O (Boc-[Phe(4-SO3H)][Nle]GW[Orn](Boc)DF-NH2) | 5.94 | 0.66 µM | – | 1100 nM | EC50 [9]: Not Active
CCCC[C@H](NC(=O)[C@H](Cc1ccc(S(=O)(=O)O)cc1)NC(=O)OC(C)(C)C)C(=O)NCC(=O)N[C@@H](Cc1c[nH]c2ccccc12)C(=O)N[C@@H](CCCNC(=O)OCc1ccccc1)C(=O)N[C@@H](CC(=O)O)C(N)=O (Boc-[Phe(4-SO3H)][Nle]GW[Orn](Cbz)D-NH2) | – | – | Not Active | 220 nM | –
CCCC[C@H](NC(=O)[C@H](Cc1ccc(S(=O)(=O)O)cc1)NC(=O)OC(C)(C)C)C(=O)NCC(=O)N[C@@H](Cc1c[nH]c2ccccc12)C(=O)N[C@@H](CCCNC(=O)OCc1ccccc1)C(=O)N[C@@H](CC(=O)O)C(=O)N[C@@H](Cc1ccccc1)C(N)=O (Boc-[Phe(4-SO3H)][Nle]GW[Orn](Cbz)DF-NH2) | – | – | – | 490 nM | –
CCCC[C@H](NC(=O)[C@H](Cc1ccc(OS(=O)(=O)O)cc1)NC(=O)OC(C)(C)C)C(=O)NCC(=O)N[C@@H](Cc1c[nH]c2ccccc12)C(=O)N[C@@H](CCCNC(=O)OCc1ccccc1)C(=O)N[C@@H](CC(=O)O)C(N)=O (Boc-[sY][Nle]GW[Orn](Cbz)D-NH2) | 6.64 | 0.23 µM | – | – | –
CCCC[C@H](NC(=O)[C@H](Cc1ccc(OS(=O)(=O)O)cc1)NC(=O)OC(C)(C)C)C(=O)NCC(=O)N[C@@H](Cc1c[nH]c2ccccc12)C(=O)N[C@@H](CCCNC(=O)OCc1ccccc1)C(=O)N[C@@H](CC(=O)O)C(=O)N[C@@H](Cc1ccccc1)C(N)=O (stereo in doubt; 1) | – | 0.31 µM | – | – | pA2 [10]: 6.32; EC50 [11]: Not Active
CCCC[C@H](NC(=O)[C@H](Cc1ccc(OS(=O)(=O)O)cc1)NC(=O)OC(C)(C)C)C(=O)NCC(=O)N[C@@H](Cc1c[nH]c2ccccc12)C(=O)N[C@@H](CCCNC(=O)OCc1ccccc1)C(=O)N[C@@H](CC(=O)O)C(=O)N[C@@H](Cc1ccccc1)C(N)=O (stereo in doubt; 2) | – | 0.34 µM | – | – | EC50 [12]: 22 nM
